Assay results taken from patent US6641840B2, “Sustained release formulations for growth hormone secretagogues” (Pfizer Inc., priority 2000, dated 2003).

Tests used:
[1] = Excipient selection based on active compound solubility screening; format: physicochemical; conditions: for solubility at 5 min: filtrate of excipient solution in water, 37 °C, thermodynamic from solid
Description: Such excipients are useful in making osmotic sustained release tablets. […] The active compound solubility measured in this manner exceeded 150 mgA/ml (mgA is the milligrams of active compound).
The excipients were screened by preparing a saturated solution (unless otherwise noted) of the candidate excipient in water at 37° C. for 2 hrs, and filtering the undissolved portion. […] The solution was maintained at 37° C. for 5 minutes prior to making the visual observation for any undissolved particulates.

[2] = tested on: IGF-I; assay: Simulated sustained release study (bolus vs divided oral solution): serum IGF-I; format: in vivo, human; conditions: simulated sustained release dosing compared to bolus
Description: This dosing regimen simulates active compound delivery by a sustained release dosage form. […] Serum concentrations of growth hormone were monitored just prior to administration of the first dose and every 20 minutes thereafter for 24 hours. Serum […] growth factor-I (IGF-I) concentrations were measured at 0, 12, and 24 hours post-first dose.
The order of treatment was defined by a randomization schedule. Following initial administration, subjects were readmitted to the clinical research facility approximately 14 days later. During the second evaluation, the subject received the treatment not used during the previous session.
IGF-I serum concentrations were determined following administration of the bolus or divided doses. […]
IGF-I quantitation of the human serum samples was conducted using the “DSL-5600A Active™ IGF-I Coated-Tube IRMA (immunoradiometric assay) by Extraction” Kit (Diagnostic Systems Laboratories Inc., Webster, Tex.). […] Lyophilized calibration and validation samples were prepared by the addition of 1 mL of water to the ready-to-use samples. […] This neutralized human serum extract was ready for use in the actual IRMA after having vortexed it briefly. […] The remaining [^125I]radioactivity of all tubes was determined by counting for five minutes using a Canberra-Packard Cobra II™ 5002 ã-counter (Canberra-Packard, Schwadorf, Austria).

[3] = Osmotic agent selection based on active compound solubility screening; format: physicochemical; conditions: 37 °C, aqueous with cosolvent or surfactant or cyclodextrin
Description: The osmogens were screened by preparing a saturated solution (unless otherwise noted) of the candidate osmogen in water at 37° C. for 2 hours, and filtering the undissolved portion as described in Example 5.

Q: Which results are given for CN1N=C2CCN(C(=O)[C@@H](COCc3ccccc3)NC(=O)C(C)(C)N)C[C@@]2(Cc2ccccc2)C1=O.O=C(O)C(O)C(O)C(=O)O [Compound A]?
A: visual observation on addition of Compound A ([1]; L-lysine solution 50 mg/ml, 37° C.): cloudy gel; solubility at 5 min ([1]; aqueous buffer, L-lysine solution 50 mg/ml (below saturation), 37° C., read-out: COMPOUND A Solubility): < 50 mg/mL; solubility at 5 min ([1]; aqueous buffer, saturated L-arginine solution, approx. 150 mg/ml, 37° C., read-out: COMPOUND A Solubility): < 50 mg/mL; solubility at 5 min ([1]; aqueous buffer, saturated L-aspartic acid solution, approx. 7 mg/ml, 37° C., read-out: COMPOUND A Solubility): > 150 mg/mL; solubility at 5 min ([1]; aqueous buffer, saturated ascorbic acid solution, approx. 400 mg/ml, 37° C., read-out: COMPOUND A Solubility): > 150 mg/mL; solubility at 5 min ([1]; aqueous buffer, saturated citric acid solution, approx. 600 mg/ml, 37° C., read-out: COMPOUND A Solubility): > 150 mg/mL; solubility at 5 min ([1]; aqueous buffer, saturated fumaric acid solution, approx. 10 mg/ml, 37° C., read-out: COMPOUND A Solubility): > 150 mg/mL; solubility at 5 min ([1]; aqueous buffer, saturated potassium phosphate monobasic solution, approx. 400 mg/ml, 37° C., read-out: COMPOUND A Solubility): < 50 mg/mL; solubility at 5 min ([1]; aqueous buffer, saturated sodium bitartrate solution, approx. 110 mg/ml, 37° C., read-out: COMPOUND A Solubility): > 150 mg/mL; solubility at 5 min ([1]; aqueous buffer, saturated sodium citrate solution, approx. 520 mg/ml, 37° C., read-out: COMPOUND A Solubility): < 50 mg/mL; solubility at 5 min ([1]; aqueous buffer, saturated sodium phosphate monobasic solution, approx. 1000 mg/ml, 37° C., read-out: COMPOUND A Solubility): < 50 mg/mL; solubility at 5 min ([1]; aqueous buffer, saturated sodium phosphate tribasic solution, approx. 290 mg/ml, 37° C., read-out: COMPOUND A Solubility): < 50 mg/mL; solubility at 5 min ([1]; aqueous buffer, saturated succinic acid solution, approx. 80 mg/ml, 37° C., read-out: COMPOUND A Solubility): > 150 mg/mL; solubility at 5 min ([1]; aqueous buffer, sodium bitartrate buffer, read-out: solubility of the active compound): > 150 mg/mL; solubility at 5 min ([1]; aqueous buffer, tartaric acid solution 50 mg/ml (below saturation), 37° C., read-out: COMPOUND A Solubility): > 150 mg/mL; solubility at 5 min ([1]; aqueous with cosolvent or surfactant or cyclodextrin, cyclodextrin, sulfobutylether solution, approx. 1000 mg/ml, 37° C., read-out: COMPOUND A Solubility): 100 to 150 mg/mL; solubility at 5 min ([1]; aqueous with cosolvent or surfactant or cyclodextrin, polyethylene glycol (Carbowax 3350) 50 mg/ml, 37° C., read-out: COMPOUND A Solubility): > 150 mg/mL; solubility at 5 min ([1]; aqueous with cosolvent or surfactant or cyclodextrin, sodium lauryl sulfate solution, approx. 50 mg/ml, 37° C., read-out: COMPOUND A Solubility): 50 to 100 mg/mL; solubility at 5 min ([1]; aqueous with cosolvent or surfactant or cyclodextrin, sulfobutylether cyclodextrin, read-out: active compound substance solubility): 100 to 150 mg/mL; solubility at 5 min ([1]; saline or isotonic, saturated potassium chloride solution, approx. 360 mg/ml, 37° C., read-out: COMPOUND A Solubility): < 50 mg/mL; solubility at 5 min ([1]; saline or isotonic, saturated sodium chloride solution, approx. 360 mg/ml, 37° C., read-out: COMPOUND A Solubility): < 50 mg/mL; solubility at 5 min ([1]; visual screening, 37° C., read-out: active compound solubility measured in this manner): > 150 mg/mL; solubility at 5 min ([1]; water, calcium stearate < 1 mg/ml, prepared at 2 mg/mL, 37° C., read-out: COMPOUND A Solubility): > 150 mg/mL; solubility at 5 min ([1]; water, magnesium stearate < 1 mg/ml, 37° C., read-out: COMPOUND A Solubility): > 150 mg/mL; solubility at 5 min ([1]; water, microcrystalline cellulose (Avicel PH102) < 1 mg/ml, prepared at 80 mg/ml, 37° C., read-out: COMPOUND A Solubility): > 150 mg/mL; solubility at 5 min ([1]; water, microcrystalline cellulose, silicified (Prosolv SMCC50) < 1 mg/ml, prepared at 80 mg/ml, 37° C., read-out: COMPOUND A Solubility): > 150 mg/mL; visual observation on addition of Compound A ([1]; saturated potassium chloride solution, 37° C.): cloudy gel; visual observation on addition of Compound A ([1]; saturated sodium chloride solution, 37° C.): cloudy gel; visual observation on addition of Compound A ([1]; saturated sodium citrate solution, 37° C.): cloudy gel; visual observation on addition of Compound A ([1]; saturated sodium phosphate monobasic solution, 37° C.): cloudy gel; visual observation on addition of Compound A ([1]; saturated sodium phosphate tribasic solution, 37° C.): cloudy gel; visual observation on addition of Compound A ([1]; sodium lauryl sulfate solution 50 mg/ml, 37° C.): clear gel; IGF-I serum concentration change from baseline at 24 hours [2]: increased; solubility at 5 min ([3]; filtrate of osmogen solution in water, fructose solution 250 mg/ml (below saturation), read-out: COMPOUND A Solubility): < 50 mg/mL; solubility at 5 min ([3]; filtrate of osmogen solution in water, visual screening, read-out: active compound solubility measured in this manner): > 150 mg/mL; solubility at 5 min ([3]; filtrate of saturated lactose solution in water, saturated lactose solution, approx. 200 mg/ml, read-out: COMPOUND A Solubility): > 150 mg/mL; solubility at 5 min ([3]; filtrate of saturated mannitol solution in water, saturated mannitol solution, approx. 180 mg/ml, read-out: COMPOUND A Solubility): > 150 mg/mL; solubility at 5 min ([3]; filtrate of saturated sodium bitartrate solution in water, saturated sodium bitartrate solution, approx. 110 mg/ml, read-out: COMPOUND A Solubility): > 150 mg/mL; solubility at 5 min ([3]; sorbitol solution in water, 250 mg/ml (below saturation), sorbitol solution 250 mg/ml (below saturation), read-out: COMPOUND A Solubility): > 150 mg/mL; solubility at 5 min ([3]; xylitol solution in water, 250 mg/ml (below saturation), xylitol solution 250 mg/ml (below saturation), read-out: COMPOUND A Solubility): < 50 mg/mL
